Results reported in ChEMBL document CHEMBL1201862, “PubChem BioAssay data set” (2004).
The source made the active and inactive calls.

What was measured:
[1] = molecular target: 1-acylglycerol-3-phosphate O-acyltransferase ABHD5/Perilipin-5 (Homo sapiens, UniProt Q00G26+Q8WTS1); experiment: Luminescence-based biochemical high throughput dose response assay for inhibitors of the interaction of the lipase co-activator protein, abhydrolase domain containing 5 (ABHD5) with perilipin-5 (MLDP; PLIN5) (2K validation set). [Related pubchem assays (depositor defined):AID493035, AID493241]
Perilipin-1/ABHD5 = Perilipin-1/ABHD5 (Homo sapiens, UniProt O60240+Q8WTS1); experiment: Luminescence-based biochemical high throughput dose response assay for inhibitors of the interaction of the lipase co-activator protein, abhydrolase domain containing 5 (ABHD5) with perilipin-1 (PLIN1) (2K validation set). [Related pubchem assays (depositor defined):AID493027, AID493057]
Sequence of Perilipin-1/ABHD5 (Q8WTS1 whole entry, the tested form may be a part): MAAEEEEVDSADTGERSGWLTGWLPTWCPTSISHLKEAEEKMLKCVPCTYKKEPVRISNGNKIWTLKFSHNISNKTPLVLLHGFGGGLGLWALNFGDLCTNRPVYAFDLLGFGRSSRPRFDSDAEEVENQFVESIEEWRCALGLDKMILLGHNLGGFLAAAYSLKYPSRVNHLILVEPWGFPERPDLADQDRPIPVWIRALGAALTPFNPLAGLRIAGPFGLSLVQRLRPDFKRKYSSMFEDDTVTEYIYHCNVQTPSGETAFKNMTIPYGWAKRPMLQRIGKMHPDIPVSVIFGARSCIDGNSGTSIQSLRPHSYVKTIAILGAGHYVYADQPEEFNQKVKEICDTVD
Sequence of Perilipin-1/ABHD5 (O60240 whole entry, the tested form may be a part): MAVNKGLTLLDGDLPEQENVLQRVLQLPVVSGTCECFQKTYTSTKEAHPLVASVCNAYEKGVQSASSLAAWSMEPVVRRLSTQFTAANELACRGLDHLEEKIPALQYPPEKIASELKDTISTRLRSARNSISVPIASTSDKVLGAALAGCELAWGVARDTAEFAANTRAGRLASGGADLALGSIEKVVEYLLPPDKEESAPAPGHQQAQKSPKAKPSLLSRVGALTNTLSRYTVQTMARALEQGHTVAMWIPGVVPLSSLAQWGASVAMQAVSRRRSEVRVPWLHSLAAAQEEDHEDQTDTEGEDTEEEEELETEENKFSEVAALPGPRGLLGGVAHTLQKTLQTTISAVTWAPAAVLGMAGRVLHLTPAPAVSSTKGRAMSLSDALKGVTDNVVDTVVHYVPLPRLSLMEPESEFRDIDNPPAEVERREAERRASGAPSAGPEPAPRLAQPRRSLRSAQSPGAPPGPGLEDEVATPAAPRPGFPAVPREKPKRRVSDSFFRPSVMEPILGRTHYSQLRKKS

[2] = molecular target: Heat shock protein HSP 90-alpha (Homo sapiens, UniProt P07900); assay type: functional, organism-based
[3] = NIH-3T3 fibroblast cytotoxicity, dose response, cytotoxicity control, cell-based, fluorescence, Alamar Blue, secondary assay (AID 2327); assay type: functional;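 also: NIH-3T3 mouse fibroblasts cultured with fluconazole at 8 µg/mL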
[4] = fluconazole-exposed Candida albicans growth modulators – fluorescence, retest, confirmation (AID 2467); assay type: functional, cell-based
[5] = molecular target: T1, Serine/threonine-protein phosphatase (Candida dubliniensis (strain CD36 / CBS 7987 / NCPF 3949 / NRRLY-17841) (Yeast), UniProt B9W6M3); experiment: blockers of CaCl2-induced CDRE-lacZ signaling – S. cerevisiae, luminescence, secondary, dose response (AID 2388); assay type: functional, cell-based;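 also: yeast reporter cells carrying a calcineurin-responsive lacZ construct stimulated with calcium chloride; luminescent beta-galactosidase reporter signal in whole cells rather than isolated phosphatase activity; potency for inhibition where a drop in reporter signal means calcineurin blockade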
T1 sequence (B9W6M3 whole entry): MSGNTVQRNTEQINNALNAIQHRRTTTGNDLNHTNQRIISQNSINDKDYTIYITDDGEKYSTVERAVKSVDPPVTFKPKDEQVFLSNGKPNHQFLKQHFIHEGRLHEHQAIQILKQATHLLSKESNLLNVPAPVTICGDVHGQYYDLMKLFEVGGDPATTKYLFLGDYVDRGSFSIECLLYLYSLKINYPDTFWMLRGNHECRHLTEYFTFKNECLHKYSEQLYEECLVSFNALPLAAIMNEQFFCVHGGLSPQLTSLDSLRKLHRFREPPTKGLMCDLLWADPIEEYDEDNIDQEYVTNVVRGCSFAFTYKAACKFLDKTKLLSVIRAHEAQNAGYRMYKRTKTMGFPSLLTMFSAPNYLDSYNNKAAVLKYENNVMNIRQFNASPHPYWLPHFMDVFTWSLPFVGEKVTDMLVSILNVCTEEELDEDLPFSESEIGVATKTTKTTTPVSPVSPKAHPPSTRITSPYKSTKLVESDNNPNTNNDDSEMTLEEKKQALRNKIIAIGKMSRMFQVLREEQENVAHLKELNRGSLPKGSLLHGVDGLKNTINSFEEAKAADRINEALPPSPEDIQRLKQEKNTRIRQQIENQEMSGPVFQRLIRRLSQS

[6] = Cytotoxicity screening for potential Inhibitors of Bacterial Capsule Biogenesis. [Related pubchem assays (depositor defined):AID488970]; assay type: functional
[7] = molecular target: ATP-dependent molecular chaperone HSP82 (Candida albicans (strain WO-1) (Yeast), UniProt C4YTQ8); experiment: steroid-induced GRE reporter decrease in yeast – S. cerevisiae, luminescence, Hsp90 inhibitor project, dose response (AID 2400); assay type: functional, cell-based;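 also: beta-galactosidase luminescence from glucocorticoid response element reporter as proxy for Hsp90 function; inhibitor potency where signal loss means Hsp90 inhibition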
Sequence of ATP-dependent molecular chaperone HSP82 (C4YTQ8 whole entry): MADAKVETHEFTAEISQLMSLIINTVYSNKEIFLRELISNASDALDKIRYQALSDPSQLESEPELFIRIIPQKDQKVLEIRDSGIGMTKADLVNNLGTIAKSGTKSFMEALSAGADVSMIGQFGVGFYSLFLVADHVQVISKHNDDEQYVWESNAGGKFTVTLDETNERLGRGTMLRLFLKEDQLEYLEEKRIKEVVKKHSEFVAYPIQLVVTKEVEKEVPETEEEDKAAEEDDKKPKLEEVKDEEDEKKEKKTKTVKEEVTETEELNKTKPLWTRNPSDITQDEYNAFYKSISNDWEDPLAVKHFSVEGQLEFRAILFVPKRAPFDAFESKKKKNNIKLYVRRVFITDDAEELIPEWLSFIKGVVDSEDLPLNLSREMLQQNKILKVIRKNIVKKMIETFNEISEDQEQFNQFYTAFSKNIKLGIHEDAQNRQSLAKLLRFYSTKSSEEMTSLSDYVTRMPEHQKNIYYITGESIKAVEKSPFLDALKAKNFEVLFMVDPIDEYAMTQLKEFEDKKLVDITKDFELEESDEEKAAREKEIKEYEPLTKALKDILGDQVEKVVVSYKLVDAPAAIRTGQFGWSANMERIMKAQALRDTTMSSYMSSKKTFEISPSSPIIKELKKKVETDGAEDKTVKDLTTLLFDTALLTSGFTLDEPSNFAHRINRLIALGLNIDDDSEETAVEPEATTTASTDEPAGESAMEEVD

Prothrombin = Prothrombin (Homo sapiens, UniProt P00734); experiment: Thrombin 1536 HTS Dose Response Confirmation. [Related pubchem assays: 1046 (Thrombin 1536 HTS; hits were confirmed in this assay)]; assay type: functional
[8] = molecular target: Neurotensin receptor type 1 (Homo sapiens, UniProt P30989); assay type: functional;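 also: Image-based confirmatory dose-response assay measuring agonist activity at NTR1; NTR1-expressing U2OS osteosarcoma cells imaged for beta-arrestin GFP spot formation; agonist potency where compounds increase beta-arrestin recruitment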
[9] = molecular target: T2, Voltage-gated N-type calcium channel alpha-1B subunit/Amyloid beta A4 precursor protein-binding family A member 1 (Homo sapiens, UniProt Q00975+Q02410); experiment: disruptors of Mint-PDZ/N-type channel peptide interaction – biochemical, HTRF, set 2, SAR follow-up (AID 434980); assay type: functional
T2 sequence (Q00975 whole entry): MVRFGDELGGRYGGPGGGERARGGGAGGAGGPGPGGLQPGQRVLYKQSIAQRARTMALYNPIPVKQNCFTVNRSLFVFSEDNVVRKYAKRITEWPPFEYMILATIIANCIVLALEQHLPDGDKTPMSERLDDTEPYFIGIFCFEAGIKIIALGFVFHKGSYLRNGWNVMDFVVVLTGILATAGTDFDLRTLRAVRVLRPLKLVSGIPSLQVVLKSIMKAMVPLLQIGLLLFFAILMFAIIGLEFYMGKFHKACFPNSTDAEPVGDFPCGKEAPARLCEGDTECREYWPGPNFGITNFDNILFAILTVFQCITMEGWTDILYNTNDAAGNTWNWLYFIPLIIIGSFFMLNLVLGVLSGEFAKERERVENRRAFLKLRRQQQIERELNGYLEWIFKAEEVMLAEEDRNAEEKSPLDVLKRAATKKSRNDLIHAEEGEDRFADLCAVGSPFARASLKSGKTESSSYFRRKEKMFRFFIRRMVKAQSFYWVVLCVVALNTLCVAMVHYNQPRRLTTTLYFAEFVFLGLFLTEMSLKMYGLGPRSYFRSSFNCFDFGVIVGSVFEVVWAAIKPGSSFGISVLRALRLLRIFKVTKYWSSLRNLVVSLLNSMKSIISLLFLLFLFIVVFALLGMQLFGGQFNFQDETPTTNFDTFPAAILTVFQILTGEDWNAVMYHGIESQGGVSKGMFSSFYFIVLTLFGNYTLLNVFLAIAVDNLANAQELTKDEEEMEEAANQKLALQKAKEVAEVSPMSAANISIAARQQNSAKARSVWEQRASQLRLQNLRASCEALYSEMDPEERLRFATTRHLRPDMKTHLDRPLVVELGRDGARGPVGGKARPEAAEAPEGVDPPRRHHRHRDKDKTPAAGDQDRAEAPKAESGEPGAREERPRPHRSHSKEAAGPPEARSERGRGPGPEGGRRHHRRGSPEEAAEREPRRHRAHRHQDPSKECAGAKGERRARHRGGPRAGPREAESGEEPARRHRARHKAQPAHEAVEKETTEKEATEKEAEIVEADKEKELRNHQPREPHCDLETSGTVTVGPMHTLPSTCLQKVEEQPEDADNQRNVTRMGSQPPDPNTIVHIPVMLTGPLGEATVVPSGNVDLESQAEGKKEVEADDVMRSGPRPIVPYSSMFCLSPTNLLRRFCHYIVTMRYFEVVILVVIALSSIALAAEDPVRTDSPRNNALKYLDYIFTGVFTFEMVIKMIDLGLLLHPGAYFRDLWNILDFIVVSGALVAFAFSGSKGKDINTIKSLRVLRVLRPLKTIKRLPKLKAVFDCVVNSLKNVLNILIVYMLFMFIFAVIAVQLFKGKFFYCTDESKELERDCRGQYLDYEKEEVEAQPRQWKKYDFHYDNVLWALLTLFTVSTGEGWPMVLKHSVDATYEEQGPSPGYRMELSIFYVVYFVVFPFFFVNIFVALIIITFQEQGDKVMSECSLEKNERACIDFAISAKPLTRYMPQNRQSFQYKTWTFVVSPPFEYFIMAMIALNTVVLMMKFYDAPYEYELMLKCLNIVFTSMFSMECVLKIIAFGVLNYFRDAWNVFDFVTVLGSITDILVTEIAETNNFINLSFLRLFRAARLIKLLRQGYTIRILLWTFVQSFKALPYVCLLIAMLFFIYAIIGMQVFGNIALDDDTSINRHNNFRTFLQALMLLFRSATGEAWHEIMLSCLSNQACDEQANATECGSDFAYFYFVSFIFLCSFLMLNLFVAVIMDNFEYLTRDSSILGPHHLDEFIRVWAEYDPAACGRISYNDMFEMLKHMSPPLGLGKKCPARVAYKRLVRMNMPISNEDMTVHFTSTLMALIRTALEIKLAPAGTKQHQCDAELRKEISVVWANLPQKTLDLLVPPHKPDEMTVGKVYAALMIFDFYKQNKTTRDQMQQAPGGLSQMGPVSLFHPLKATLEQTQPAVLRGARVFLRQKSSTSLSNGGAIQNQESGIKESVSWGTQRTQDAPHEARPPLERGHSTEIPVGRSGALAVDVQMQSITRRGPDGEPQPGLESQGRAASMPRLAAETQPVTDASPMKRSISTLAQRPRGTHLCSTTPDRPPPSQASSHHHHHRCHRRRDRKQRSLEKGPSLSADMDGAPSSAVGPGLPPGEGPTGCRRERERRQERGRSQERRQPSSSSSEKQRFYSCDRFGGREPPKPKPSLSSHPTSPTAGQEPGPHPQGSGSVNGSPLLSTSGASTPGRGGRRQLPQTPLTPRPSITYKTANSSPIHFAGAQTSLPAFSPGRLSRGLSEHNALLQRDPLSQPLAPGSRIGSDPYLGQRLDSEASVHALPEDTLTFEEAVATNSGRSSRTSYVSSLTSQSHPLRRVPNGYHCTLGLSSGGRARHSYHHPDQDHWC
T2 sequence (Q02410 whole entry): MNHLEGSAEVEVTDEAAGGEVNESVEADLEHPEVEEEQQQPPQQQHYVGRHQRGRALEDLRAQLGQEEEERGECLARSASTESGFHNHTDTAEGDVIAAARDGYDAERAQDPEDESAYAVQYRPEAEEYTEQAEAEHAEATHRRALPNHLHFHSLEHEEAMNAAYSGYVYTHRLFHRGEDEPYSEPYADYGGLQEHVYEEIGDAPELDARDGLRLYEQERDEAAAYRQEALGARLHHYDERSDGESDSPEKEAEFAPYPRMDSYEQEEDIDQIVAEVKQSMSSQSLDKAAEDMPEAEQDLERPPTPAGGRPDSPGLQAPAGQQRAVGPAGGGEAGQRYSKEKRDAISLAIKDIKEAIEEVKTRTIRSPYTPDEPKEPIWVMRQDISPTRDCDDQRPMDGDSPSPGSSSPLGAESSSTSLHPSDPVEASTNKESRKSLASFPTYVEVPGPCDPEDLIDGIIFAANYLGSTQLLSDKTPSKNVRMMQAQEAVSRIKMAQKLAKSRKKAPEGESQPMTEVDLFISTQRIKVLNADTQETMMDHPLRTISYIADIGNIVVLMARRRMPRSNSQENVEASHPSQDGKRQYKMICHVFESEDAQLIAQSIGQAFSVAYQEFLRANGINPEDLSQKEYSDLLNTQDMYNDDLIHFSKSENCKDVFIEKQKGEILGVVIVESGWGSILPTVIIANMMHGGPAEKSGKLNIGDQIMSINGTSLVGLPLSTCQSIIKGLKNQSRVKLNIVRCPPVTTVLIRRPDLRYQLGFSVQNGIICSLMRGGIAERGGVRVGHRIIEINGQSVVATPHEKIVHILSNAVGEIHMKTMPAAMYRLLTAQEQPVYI

[10] = molecular target: T2, Voltage-gated N-type calcium channel alpha-1B subunit/Amyloid beta A4 precursor protein-binding family A member 1; experiment: disruptors of Mint-PDZ/N-type channel peptide interaction – biochemical, HTRF, SAR follow-up (AID 2489); assay type: functional
[11] = molecular target: Eukaryotic translation initiation factor 4E (Mus musculus, UniProt P63073); experiment: blockers of eIF4G binding by eIF4E – biochemical, TR-FRET, dose response (AID 855); assay type: functional;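 also: potency for disrupting eIF4E binding to eIF4GI seen as loss of FRET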
Sequence of Eukaryotic translation initiation factor 4E (P63073 whole entry): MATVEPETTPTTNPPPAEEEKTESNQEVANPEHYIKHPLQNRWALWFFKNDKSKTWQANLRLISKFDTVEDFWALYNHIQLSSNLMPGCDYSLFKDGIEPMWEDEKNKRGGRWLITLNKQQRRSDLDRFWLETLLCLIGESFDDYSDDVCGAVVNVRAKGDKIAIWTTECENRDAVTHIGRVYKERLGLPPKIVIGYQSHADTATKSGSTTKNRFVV

[12] = molecular target: Potassium voltage-gated channel subfamily KQT member 2 (Rattus norvegicus, UniProt O88943); experiment: potentiation of rat KCNQ2 current – cell-based, retigabine-insensitive compounds, dose response (AID 2654); assay type: functional
Coagulation factor XII = molecular target: T3, Coagulation factor XII (Homo sapiens, UniProt P00748); experiment: activated coagulation factor XII inhibitor potency, concentration-effect curve, cell-free (AID 716); assay type: functional
T3 sequence (P00748 whole entry): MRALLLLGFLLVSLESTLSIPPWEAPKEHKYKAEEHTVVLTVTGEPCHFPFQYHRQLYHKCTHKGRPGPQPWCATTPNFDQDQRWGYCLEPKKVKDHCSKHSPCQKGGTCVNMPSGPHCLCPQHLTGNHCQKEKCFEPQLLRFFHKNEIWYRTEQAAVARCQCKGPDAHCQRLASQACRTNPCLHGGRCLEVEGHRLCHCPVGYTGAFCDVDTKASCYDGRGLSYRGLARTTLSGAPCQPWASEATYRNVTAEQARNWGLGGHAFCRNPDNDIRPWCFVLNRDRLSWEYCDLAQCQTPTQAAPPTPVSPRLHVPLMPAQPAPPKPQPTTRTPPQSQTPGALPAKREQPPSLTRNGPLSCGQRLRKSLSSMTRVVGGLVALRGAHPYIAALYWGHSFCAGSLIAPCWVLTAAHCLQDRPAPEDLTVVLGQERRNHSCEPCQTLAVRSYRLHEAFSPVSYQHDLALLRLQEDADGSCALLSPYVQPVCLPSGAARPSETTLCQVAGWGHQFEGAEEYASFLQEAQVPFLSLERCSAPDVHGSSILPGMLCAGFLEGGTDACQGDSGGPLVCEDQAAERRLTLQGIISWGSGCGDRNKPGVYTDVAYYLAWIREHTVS

[13] = protection from phage-mediated lysis, alamar blue read-out – E. coli UTI89, K1F phage, bacterial capsule biogenesis inhibitors (AID 488966); assay type: functional
[14] = THP-1 cell cytotoxicity, dose response, cytotoxicity control for non-replicating M. tuberculosis project (AID 489025); assay type: functional
[15] = HepG2 cell cytotoxicity, dose response, cytotoxicity control for non-replicating M. tuberculosis project (AID 489018); assay type: functional; conditions: Mycobacterium tuberculosis
[16] = Vero E6 cell cytotoxicity, dose response, cytotoxicity control for non-replicating M. tuberculosis project, secondary assay (AID 492998); assay type: functional, VeroE6; conditions: Vero C1008
cells = assay type: functional
Saccharomyces cerevisiae = experiment: S. cerevisiae Caspase-1/ASC signal blockers IC50, NALP1 inhibitor project selectivity test (AID 488863); assay type: functional, organism-based
[17] = molecular target: NACHT, LRR and PYD domains-containing protein 1 (Homo sapiens, UniProt Q9C000); experiment: NALP1 inhibitors in yeast, dose response, luminescent (AID 488860); assay type: functional
[18] = molecular target: NACHT, LRR and PYD domains-containing protein 3 (Homo sapiens, UniProt Q96P20); experiment: NALP3 inhibitors in yeast, dose response, luminescent (AID 488799); assay type: functional
[19] = molecular target: Voltage-dependent T-type calcium channel subunit alpha-1H (Homo sapiens, UniProt O95180); experiment: human CACNA1H calcium influx blockade – cell-based, synthetic library set 1, calcium flux (AID 493022); assay type: functional
[20] = molecular target: Melanin-concentrating hormone receptor 1 (Homo sapiens, UniProt Q99705); experiment: Late-stage fluorescence-based counterscreen for antagonists of the G-protein coupled receptor 7 (GPR7): cell-based dose response assay to identify antagonists of the melanin-concentrating hormone receptor 1 (MCHR1). [Related pubchem assays (depositor defined):AID1861, AID1880, AID1952, AID2148, AID2251, AID2257, AID485339]; assay type: functional;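 also: stimulated with 30 nM MCH peptide agonist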
[21] = molecular target: T4, Neuropeptides B/W receptor type 1 (Homo sapiens, UniProt P48145); experiment: human NPBW1 receptor blockade, IC50 – cell-based, fluorescence, dose response, late-stage follow-up (AID 463251); assay type: functional
T4 sequence (P48145 whole entry): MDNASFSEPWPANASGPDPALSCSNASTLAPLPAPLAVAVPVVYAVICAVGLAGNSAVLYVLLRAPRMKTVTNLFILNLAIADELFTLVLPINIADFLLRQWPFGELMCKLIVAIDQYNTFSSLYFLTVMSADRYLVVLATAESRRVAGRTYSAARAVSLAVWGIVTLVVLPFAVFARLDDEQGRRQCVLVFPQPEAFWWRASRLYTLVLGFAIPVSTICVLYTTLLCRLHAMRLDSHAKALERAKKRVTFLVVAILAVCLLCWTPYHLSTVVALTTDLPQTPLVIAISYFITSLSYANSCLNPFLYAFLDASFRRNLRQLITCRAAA

[22] = NIH/3T3 cell viability loss – mouse embryonic fibroblasts, dry powder, set 2, cytotoxicity control, dose response (AID 493247); assay type: functional, cell-based; conditions: Fibroblast
Trypanosoma cruzi = experiment: anti-trypanosomal activity in host cells – cell-based, plate reader, dry powder, set 3, dose response (AID 493197); assay type: functional
Protein Rev = Protein Rev (Human immunodeficiency virus type 1 group M subtype B (isolate HXB2)(HIV-1), UniProt P04618); experiment: blockers of HIV Rev/RRE RNA complex – biochemical, fluorescence polarization, HIV-1, dose response (AID 434976); parameters: species or system Human immunodeficiency virus 1
[23] = molecular target: Female germline-specific tumor suppressor gld-1 (Caenorhabditis elegans, UniProt Q17339); experiment: blockers of GLD-1/TGE RNA complex formation – biochemical, fluorescence polarization, C. elegans, dose response (AID 2802);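 also: fluorescence polarization of labeled TGE RNA bound by purified gld-1 protein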

In the case of `CC(C)N1C(=O)/C(=C\c2nc(O)c3ccccc3n2)c2ccccc21`, the IC50 [1] is reported as 7.59 µM (active), the IC50 (Perilipin-1/ABHD5) is reported as 6.84 µM (active) and the AC50 [2] is reported as 5.37 µM (active).

In the case of `O=C(NCc1cc([N+](=O)[O-])ccc1O)c1cccnc1Sc1ccccc1Cl`, the EC50 [3] is reported as > 150 µM (inactive), the EC50 [4] is reported as 0.848 µM (active) and the EC50 [5] is reported as > 180 µM (inactive). For the same compound, the CC50 [6] was > 100 µM (active) and the EC50 [7] was > 150 µM (inactive).

With `CCN1C(=O)/C(=C/N(C(C)=O)c2ccccc2)N(c2ccccc2)C1=S` the IC50 (Prothrombin) was > 50 µM (not active) and the EC50 [8] was 18 µM (active).

For `CC(/C=C/c1ccco1)=NNC(=O)c1cccnc1`, the IC50 [9] was 6.99 µM (active) and the IC50 [10] was 21.4 µM (active).

For `COc1ccc(-n2c(Cc3cccn3C)nnc2SCC(=O)Nc2cccc(F)c2)cc1`, the IC50 [11] was > 64 µM (inactive).

For `S=C(Nc1cccnc1)Nc1cccc(Cl)c1`, the EC50 [12] was 9.33 µM (active).

For `CCCS(=O)(=O)N1CCN(c2ccccc2F)CC1`, the IC50 (Coagulation factor XII) was > 50 µM (inactive).

In the case of `CC12CC3CC(C)(C1)CC(CN)(C3)C2`, the IC50 [13] is reported as > 300 µM (active).

In the case of `O=C(NNC(=O)c1ccccn1)c1cccc([N+](=O)[O-])c1`, the CC50 [14] is reported as 26.7 µM (active), the CC50 [15] is reported as > 20 µM (active) and the CC50 [16] is reported as 9.98 µM (active). The IC50 (cells) was 10.9 µM (active).

For `Cc1ccc(NC(=O)CNc2ccc(OC(C)C)cc2)cc1`, the IC50 (Saccharomyces cerevisiae) was 42.6 µM (active) and the IC50 [17] was 22.6 µM (active).

For `COc1c(OC(C)=O)c(=O)n2c3ccccc3c3ccnc1c32`, the IC50 [18] was 1.58 µM (active).

In the case of `CC(Oc1ccccc1)C(=O)Nc1nnc(-c2ccc(F)cc2)o1` (stereo not given), the EC50 [19] is reported as 10 µM (active).

In the case of `O=C(C1CCCCN1Cc1ccc(Cl)c(Cl)c1)N1CCN(c2ccc([N+](=O)[O-])cc2)CC1` (stereo not given), the IC50 [20] is reported as 4.6 µM (active) and the IC50 [21] is reported as 2.3 µM (active).

With `O=C(COc1ccc2ccccc2c1)N/N=C/c1ccc([N+](=O)[O-])o1` the AC50 [22] was 22.3 µM (active) and the AC50 (Trypanosoma cruzi) was 0.837 µM (active).

For `C=CCc1cccc(/C=N/n2c(C)nnc2C)c1O`, the IC50 (Protein Rev) was > 8.39 µM (active) and the IC50 [23] was 8.19 µM (active).
